According to PubChem BioAssay AID1919013 (Molecular Pharmacology Branch, DTP, NCI, 2023):

Test system: LG0703-F498-PDC complex spheroid growth
Assay: Anticancer human tumor LG0703-F498-PDC patient-derived lung adenocarcinoma cell line growth inhibition [AhR]
Details: for IC50: curve of first compound; for viability, T/C: stronger effect = lower value
In short: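 Agents were dosed in half-log steps down from roughly clinical Cmax, or from 10 microM where Cmax was unknown, alone and with AhR antagonists. Read-out: percent test/control growth of tumor spheroids containing HUVEC and MSC stromal cells.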

[1] = second compound 0.1 µM, first compound 0.0316 µM
[2] = second compound 0.1 µM, first compound 0.1 µM
[3] = second compound 0.1 µM, first compound 0.316 µM
[4] = second compound 0.1 µM, first compound 1 µM
[5] = second compound 0.1 µM, first compound 3.16 µM
[6] = second compound 0.1 µM, first compound 10 µM
[7] = second compound 0.316 µM, first compound 0.0316 µM
[8] = second compound 0.316 µM, first compound 0.1 µM
[9] = second compound 0.316 µM, first compound 0.316 µM
[10] = second compound 0.316 µM, first compound 1 µM
[11] = second compound 0.316 µM, first compound 3.16 µM
[12] = second compound 0.316 µM, first compound 10 µM
[13] = second compound 1 µM, first compound 0.0316 µM
[14] = second compound 1 µM, first compound 0.1 µM
[15] = second compound 1 µM, first compound 0.316 µM
[16] = second compound 1 µM, first compound 1 µM
[17] = second compound 1 µM, first compound 3.16 µM
[18] = second compound 1 µM, first compound 10 µM
[19] = second compound 3.16 µM, first compound 0.0316 µM
[20] = second compound 3.16 µM, first compound 0.1 µM
[21] = second compound 3.16 µM, first compound 0.316 µM
[22] = second compound 3.16 µM, first compound 1 µM
[23] = second compound 3.16 µM, first compound 3.16 µM
[24] = second compound 3.16 µM, first compound 10 µM
[25] = second compound 10 µM, first compound 0.0316 µM
[26] = second compound 10 µM, first compound 0.1 µM
[27] = second compound 10 µM, first compound 0.316 µM
[28] = second compound 10 µM, first compound 1 µM
[29] = second compound 10 µM, first compound 3.16 µM
[30] = second compound 10 µM, first compound 10 µM
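Also: luminescence taken as a proxy for viable cell amount.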
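For viability, T/C in this document: percent of DMSO vehicle control where 100% means growth equal to vehicle.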

`O=C(c1cc(Cc2n[nH]c(=O)c3ccccc23)ccc1F)N1CCN(C(=O)C2CC2)CC1` + CC(CO)NC(=O)c1cc(-c2ccc(Cl)cc2)nn(-c2cnn(C)c2)c1=O was tested, and the IC50 (second compound 0.1 µM) was greater than 10 µM, the IC50 (second compound 0.316 µM) was greater than 10 µM and the IC50 (second compound 1 µM) was greater than 10 µM. It also gave an IC50 (second compound 3.16 µM) greater than 10 µM, an IC50 (second compound 10 µM) greater than 10 µM and a viability, T/C [1] of 95.2%. For the same compound, the viability, T/C [2] was 99.8%, the viability, T/C [3] was 94.8% and the viability, T/C [4] was 86.6%. The viability, T/C [5] was 95.3%, the viability, T/C [6] was 70.4% and the viability, T/C [7] was 96.2%. For the same compound, the viability, T/C [8] was 98.4%, the viability, T/C [9] was 87.5% and the viability, T/C [10] was 82.4%. It also gave a viability, T/C [11] of 88.8%, a viability, T/C [12] of 83.1% and a viability, T/C [13] of 93%. It also gave a viability, T/C [14] of 108%, a viability, T/C [15] of 95.7% and a viability, T/C [16] of 74.4%. For the same compound, the viability, T/C [17] was 86.1%, the viability, T/C [18] was 81% and the viability, T/C [19] was 89.3%. The viability, T/C [20] was 91%, the viability, T/C [21] was 94.5% and the viability, T/C [22] was 74.1%. It also gave a viability, T/C [23] of 79%, a viability, T/C [24] of 72% and a viability, T/C [25] of 77.4%. The viability, T/C [26] was 78.6%, the viability, T/C [27] was 82.7% and the viability, T/C [28] was 80%. It also gave a viability, T/C [29] of 81.8% and a viability, T/C [30] of 79.8%.
In the case of `COc1cccc2c1C(=O)c1c(O)c3c(c(O)c1C2=O)CC(O)(C(=O)CO)CC3OC1CC(N)C(O)C(C)O1` (stereo not given) + Cc1ccccc1N=Nc1ccc(NC(=O)c2ccnn2C)c(C)c1, the IC50 (second compound 0.1 µM) is reported as 0.687 µM, the IC50 (second compound 0.316 µM) is reported as 0.552 µM and the IC50 (second compound 1 µM) is reported as 0.564 µM. For the same compound, the IC50 (second compound 3.16 µM) was 0.573 µM, the IC50 (second compound 10 µM) was 0.68 µM and the viability, T/C [1] was 92.4%. For the same compound, the viability, T/C [2] was 90%, the viability, T/C [3] was 69.9% and the viability, T/C [4] was 40.7%. It also gave a viability, T/C [5] of 11.5%, a viability, T/C [6] of 0.88% and a viability, T/C [7] of 93.5%. It also gave a viability, T/C [8] of 89.7%, a viability, T/C [9] of 59.3% and a viability, T/C [10] of 38.2%. For the same compound, the viability, T/C [11] was 11.3%, the viability, T/C [12] was 0.75% and the viability, T/C [13] was 79.1%. The viability, T/C [14] was 95.6%, the viability, T/C [15] was 64.9% and the viability, T/C [16] was 32.1%. It also gave a viability, T/C [17] of 10.6%, a viability, T/C [18] of 0.84% and a viability, T/C [19] of 92.5%. For the same compound, the viability, T/C [20] was 85.9%, the viability, T/C [21] was 67.2% and the viability, T/C [22] was 34.2%. The viability, T/C [23] was 8.26%, the viability, T/C [24] was 0.48% and the viability, T/C [25] was 80.8%. It also gave a viability, T/C [26] of 82.3%, a viability, T/C [27] of 69.9% and a viability, T/C [28] of 40.4%. The viability, T/C [29] was 5.43% and the viability, T/C [30] was 2.16%.
`COc1cc(Nc2ncc3c(n2)-c2ccc(Cl)cc2C(c2c(F)cccc2OC)=NC3)ccc1C(=O)O` + CC(CO)NC(=O)c1cc(-c2ccc(Cl)cc2)nn(-c2cnn(C)c2)c1=O showed an IC50 (second compound 0.1 µM) of 6.88 µM, an IC50 (second compound 0.316 µM) of 8.34 µM and an IC50 (second compound 1 µM) of 5.11 µM. For the same compound, the IC50 (second compound 3.16 µM) was 4.36 µM, the IC50 (second compound 10 µM) was 3.25 µM and the viability, T/C [1] was 87.2%. It also gave a viability, T/C [2] of 88.2%, a viability, T/C [3] of 78.5% and a viability, T/C [4] of 71%. The viability, T/C [5] was 61.7%, the viability, T/C [6] was 44.4% and the viability, T/C [7] was 94.9%. For the same compound, the viability, T/C [8] was 79.2%, the viability, T/C [9] was 78.9% and the viability, T/C [10] was 70.2%. It also gave a viability, T/C [11] of 56.3%, a viability, T/C [12] of 48.8% and a viability, T/C [13] of 91.6%. For the same compound, the viability, T/C [14] was 96.2%, the viability, T/C [15] was 75.1% and the viability, T/C [16] was 68.2%. For the same compound, the viability, T/C [17] was 56.4%, the viability, T/C [18] was 42.7% and the viability, T/C [19] was 91.6%. It also gave a viability, T/C [20] of 75.2%, a viability, T/C [21] of 70.7% and a viability, T/C [22] of 63.9%. It also gave a viability, T/C [23] of 50.3%, a viability, T/C [24] of 44.5% and a viability, T/C [25] of 92%. For the same compound, the viability, T/C [26] was 77.4%, the viability, T/C [27] was 65% and the viability, T/C [28] was 65%. The viability, T/C [29] was 52.7% and the viability, T/C [30] was 37.6%.
Work on `CCN(c1cc(-c2ccc(CN3CCOCC3)cc2)cc(C(=O)NCc2c(C)cc(C)[nH]c2=O)c1C)C1CCOCC1` + CC(CO)NC(=O)c1cc(-c2ccc(Cl)cc2)nn(-c2cnn(C)c2)c1=O yielded an IC50 (second compound 0.1 µM) greater than 3 µM, an IC50 (second compound 0.316 µM) greater than 3 µM and an IC50 (second compound 1 µM) greater than 3 µM. For the same compound, the IC50 (second compound 3.16 µM) was greater than 3 µM, the IC50 (second compound 10 µM) was greater than 3 µM and the viability, T/C (second compound 0.1 µM, first compound 0.00949 µM) was 98.2%. The viability, T/C (second compound 0.1 µM, first compound 0.03 µM) was 100%, the viability, T/C (second compound 0.1 µM, first compound 0.0949 µM) was 93.9% and the viability, T/C (second compound 0.1 µM, first compound 0.3 µM) was 96.1%. The viability, T/C (second compound 0.1 µM, first compound 0.949 µM) was 95.7%, the viability, T/C (second compound 0.1 µM, first compound 3 µM) was 94.6% and the viability, T/C (second compound 0.316 µM, first compound 0.00949 µM) was 105%. It also gave a viability, T/C (second compound 0.316 µM, first compound 0.03 µM) of 112%, a viability, T/C (second compound 0.316 µM, first compound 0.0949 µM) of 101% and a viability, T/C (second compound 0.316 µM, first compound 0.3 µM) of 92.9%. The viability, T/C (second compound 0.316 µM, first compound 0.949 µM) was 114%, the viability, T/C (second compound 0.316 µM, first compound 3 µM) was 105% and the viability, T/C (second compound 1 µM, first compound 0.00949 µM) was 91.1%. For the same compound, the viability, T/C (second compound 1 µM, first compound 0.03 µM) was 95.7%, the viability, T/C (second compound 1 µM, first compound 0.0949 µM) was 99% and the viability, T/C (second compound 1 µM, first compound 0.3 µM) was 90%. For the same compound, the viability, T/C (second compound 1 µM, first compound 0.949 µM) was 92.9%, the viability, T/C (second compound 1 µM, first compound 3 µM) was 103% and the viability, T/C (second compound 3.16 µM, first compound 0.00949 µM) was 85.1%. For the same compound, the viability, T/C (second compound 3.16 µM, first compound 0.03 µM) was 95.3%, the viability, T/C (second compound 3.16 µM, first compound 0.0949 µM) was 96.7% and the viability, T/C (second compound 3.16 µM, first compound 0.3 µM) was 81.2%. For the same compound, the viability, T/C (second compound 3.16 µM, first compound 0.949 µM) was 84.8%, the viability, T/C (second compound 3.16 µM, first compound 3 µM) was 102% and the viability, T/C (second compound 10 µM, first compound 0.00949 µM) was 86%. The viability, T/C (second compound 10 µM, first compound 0.03 µM) was 97.1%, the viability, T/C (second compound 10 µM, first compound 0.0949 µM) was 94.2% and the viability, T/C (second compound 10 µM, first compound 0.3 µM) was 93.8%. It also gave a viability, T/C (second compound 10 µM, first compound 0.949 µM) of 78.3% and a viability, T/C (second compound 10 µM, first compound 3 µM) of 96.3%.
In the case of `CC1(C)CCC(CN2CCN(c3ccc(C(=O)NS(=O)(=O)c4ccc(NCC5CCOCC5)c([N+](=O)[O-])c4)c(Oc4cnc5[nH]ccc5c4)c3)CC2)=C(c2ccc(Cl)cc2)C1` + Cc1cncc(-c2nc(NCCc3c[nH]c4ccccc34)c3ncn(C(C)C)c3n2)c1, the IC50 (second compound 0.1 µM) is reported as 8.32 µM, the IC50 (second compound 0.316 µM) is reported as 7.1 µM and the IC50 (second compound 1 µM) is reported as 7.97 µM. For the same compound, the IC50 (second compound 3.16 µM) was 0.0316 µM, the IC50 (second compound 10 µM) was less than 0.0316 µM and the viability, T/C [1] was 112%. It also gave a viability, T/C [2] of 96.1%, a viability, T/C [3] of 106% and a viability, T/C [4] of 97%. The viability, T/C [5] was 87.8%, the viability, T/C [6] was 42.5% and the viability, T/C [7] was 120%. For the same compound, the viability, T/C [8] was 88%, the viability, T/C [9] was 101% and the viability, T/C [10] was 92.7%. For the same compound, the viability, T/C [11] was 88.4%, the viability, T/C [12] was 34.3% and the viability, T/C [13] was 116%. For the same compound, the viability, T/C [14] was 113%, the viability, T/C [15] was 95% and the viability, T/C [16] was 103%. The viability, T/C [17] was 97.7%, the viability, T/C [18] was 37.8% and the viability, T/C [19] was 48%. The viability, T/C [20] was 49.5%, the viability, T/C [21] was 54.6% and the viability, T/C [22] was 43.3%. The viability, T/C [23] was 52.1%, the viability, T/C [24] was 24.7% and the viability, T/C [25] was 1.31%. The viability, T/C [26] was 1.08%, the viability, T/C [27] was 1.56% and the viability, T/C [28] was 1.25%. For the same compound, the viability, T/C [29] was 1.72% and the viability, T/C [30] was 4.35%.
